{"source": "ChEMBL document CHEMBL5727746", "about": "“Benzothiazol compounds and methods using the same for treating neurodegenerative disorders” (2020)", "target": "Mast/stem cell growth factor receptor Kit (Homo sapiens, UniProt P10721)", "sequence (P10721 whole entry)": "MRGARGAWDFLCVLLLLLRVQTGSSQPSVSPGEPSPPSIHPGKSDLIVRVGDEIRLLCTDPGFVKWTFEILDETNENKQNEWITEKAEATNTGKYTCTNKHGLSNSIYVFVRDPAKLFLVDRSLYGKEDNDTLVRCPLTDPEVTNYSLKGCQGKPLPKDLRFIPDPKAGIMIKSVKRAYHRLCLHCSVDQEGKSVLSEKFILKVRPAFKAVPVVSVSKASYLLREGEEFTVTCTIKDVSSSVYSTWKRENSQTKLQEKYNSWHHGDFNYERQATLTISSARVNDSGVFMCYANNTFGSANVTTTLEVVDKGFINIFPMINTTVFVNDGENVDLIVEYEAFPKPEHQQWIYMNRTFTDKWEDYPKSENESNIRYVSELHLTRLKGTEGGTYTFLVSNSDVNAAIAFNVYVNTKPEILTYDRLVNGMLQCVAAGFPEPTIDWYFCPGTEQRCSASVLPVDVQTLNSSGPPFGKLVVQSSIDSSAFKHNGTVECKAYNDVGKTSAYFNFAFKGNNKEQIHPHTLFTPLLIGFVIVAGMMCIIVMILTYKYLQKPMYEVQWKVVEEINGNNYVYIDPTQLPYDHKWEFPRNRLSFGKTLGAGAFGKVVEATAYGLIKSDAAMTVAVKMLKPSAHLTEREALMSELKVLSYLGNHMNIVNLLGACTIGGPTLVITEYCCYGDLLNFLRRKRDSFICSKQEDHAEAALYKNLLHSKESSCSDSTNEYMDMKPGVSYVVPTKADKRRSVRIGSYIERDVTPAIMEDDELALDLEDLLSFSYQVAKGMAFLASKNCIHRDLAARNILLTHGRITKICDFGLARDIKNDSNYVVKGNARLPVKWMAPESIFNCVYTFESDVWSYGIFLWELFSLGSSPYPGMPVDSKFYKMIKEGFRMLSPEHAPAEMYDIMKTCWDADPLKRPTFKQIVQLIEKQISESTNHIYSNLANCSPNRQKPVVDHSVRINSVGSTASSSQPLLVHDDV", "assay": "Magnesium chloride (MgCl2), Manganese(II) chloride (MnCl2), Bovine serum albumin (BSA) and dimethylsulfoxide (DMSO) were purchased from Sigma-Aldrich."}
{"smiles": "Cc1ccc2c(c1-c1ccc3nc(NC(=O)[C@@H]4C[C@@H]4F)sc3c1)CCN2", "values": [{"measurement": "IC50", "result": "> 10", "unit": "µM"}]}
